Legend:
Assay type in all cases: in vivo
[1] = system: morningglory (Ipomoea spp.); assay: Test A pre/postemergence
Method in brief: (§1)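 Ratings: 0 = no effect, 100 = complete control, assessed visually about ten days post-treatment in a greenhouse. Applications: soil-directed preemergence spray and postemergence spray on 1- to 2-leaf plants, both using a surfactant-containing non-phytotoxic solvent formulation.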

[2] = system: crabgrass (Digitaria sanguinalis); assay: Test A pre/postemergence
Method in brief: as §1

[3] = system: redroot pigweed (Amaranthus retroflexus); assay: Test A pre/postemergence
Method in brief: as §1

[4] = system: velvetleaf (Abutilon theophrasti); assay: Test A pre/postemergence
Method in brief: as §1

[5] = system: barnyardgrass (Echinochloa crus-galli); assay: Test A pre/postemergence
Method in brief: as §1

[6] = system: giant foxtail (Setaria faberi); assay: Test A pre/postemergence
Method in brief: as §1

[7] = system: chickweed (Stellaria media); assay: Test C postemergence; settings: for Chickweed plant response rating: 125 g ai/ha, scale 0 to 100 (0 no effect, 100 complete control)
Method in brief: (§2)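 Injury scored visually 12–14 days after application on 0–100 scale (100 = complete control), relative to controls. Compounds, formulated with surfactant in non-phytotoxic solvent, applied to soil at planting (pre) or to 1- to 4-leaf plants 2–18 cm tall (post) in greenhouse.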

corn (Zea mays) = assay: Test C pre/postemergence; settings: for Corn plant response rating: scale 0 to 100 (0 no effect, 100 complete control)
Method in brief: as §2

soybean (Glycine max) = assay: Test C pre/postemergence; settings: for Soybean plant response rating: 125 g ai/ha, scale 0 to 100 (0 no effect, 100 complete control)
Method in brief: as §2

[8] = system: lambsquarters (Chenopodium album); assay: Test C pre/postemergence; settings: for Lambsquarters plant response rating: scale 0 to 100 (0 no effect, 100 complete control)
Method in brief: as §2

[9] = system: goosegrass (Eleusine indica); assay: Test C pre/postemergence; settings: for Goosegrass plant response rating: scale 0 to 100 (0 no effect, 100 complete control)
Method in brief: as §2

[10] = Postemergence, 125 g ai/ha, 0 to 100 scale (0 no effect, 100 complete control)
[11] = Postemergence, 500 g ai/ha, 0 to 100 scale (0 no effect, 100 complete control)
[12] = Preemergence, 125 g ai/ha, 0 to 100 scale where 0 is no effect and 100 is complete control, approximately ten days
[13] = Preemergence, 500 g ai/ha, 0 to 100 scale where 0 is no effect and 100 is complete control, approximately ten days
[14] = Postemergence, 250 g ai/ha, scale 0 to 100
[15] = Preemergence, 16 g ai/ha, scale 0 to 100, 0 no effect, 100 complete control
[16] = Preemergence, 31 g ai/ha, scale 0 to 100, 0 no effect, 100 complete control
[17] = Preemergence, 62 g ai/ha, scale 0 to 100, 0 no effect, 100 complete control
[18] = Preemergence, 125 g ai/ha, scale 0 to 100

Nc1nc(-c2ccc(Cl)cc2)nc(C(=O)O)c1Br [Compound 88]
Plant response rating, Morningglory [1, 10]: 60
Plant response rating, Morningglory [1, 11]: 85
Plant response rating, Morningglory [1, 12]: 10
Plant response rating, Morningglory [1, 13]: 90
Plant response rating, Crabgrass [2, 10]: 60
Plant response rating, Crabgrass [2, 11]: 85
Plant response rating, Crabgrass [2, 12]: 35
Plant response rating, Crabgrass [2, 13]: 85
Plant response rating, Pigweed [3, 10]: 90
Plant response rating, Pigweed [3, 11]: 95
Plant response rating, Pigweed [3, 12]: 80
Plant response rating, Pigweed [3, 13]: 100
Plant response rating, Velvetleaf [4, 10]: 90
Plant response rating, Velvetleaf [4, 11]: 95
Plant response rating, Velvetleaf [4, 12]: 10
Plant response rating, Velvetleaf [4, 13]: 70
Plant response rating, Barnyardgrass [5, 10]: 50
Plant response rating, Barnyardgrass [5, 11]: 85
Plant response rating, Barnyardgrass [5, 12]: 10
Plant response rating, Barnyardgrass [5, 13]: 55
Plant response rating, Foxtail, Giant [6, 10]: 80
Plant response rating, Foxtail, Giant [6, 11]: 90
Plant response rating, Foxtail, Giant [6, 12]: 10
Plant response rating, Foxtail, Giant [6, 13]: 50
Plant response rating (scale of 0 to 100), Chickweed ([7]; 31 g ai/ha): 80
Plant response rating (scale of 0 to 100), Chickweed ([7]; 62 g ai/ha): 100
Chickweed plant response rating [7]: 100
Plant response rating, Chickweed ([7]; 250 g ai/ha, scale 0 to 100): 100
Plant response rating (scale of 0 to 100), Corn (corn (Zea mays); Postemergence, 31 g ai/ha): 0
Plant response rating (scale of 0 to 100), Corn (corn (Zea mays); Postemergence, 62 g ai/ha): 0
Plant response rating, Corn (corn (Zea mays); [14]): 30
Plant response rating (scale of 0 to 100), Soybean (soybean (Glycine max); Postemergence, 31 g ai/ha): 100
Plant response rating (scale of 0 to 100), Soybean (soybean (Glycine max); Postemergence, 62 g ai/ha): 100
Soybean plant response rating (soybean (Glycine max); Postemergence): 100
Plant response rating, Soybean (soybean (Glycine max); [14]): 100
Plant response rating (scale of 0 to 100), Lambsquarters ([8]; Postemergence, 31 g ai/ha): 90
Plant response rating (scale of 0 to 100), Lambsquarters ([8]; Postemergence, 62 g ai/ha): 95
Lambsquarters plant response rating ([8]; Postemergence, 125 g ai/ha): 95
Plant response rating, Lambsquarters [8, 14]: 100
Plant response rating (scale of 0 to 100), Goosegrass ([9]; Postemergence, 31 g ai/ha): 50
Plant response rating (scale of 0 to 100), Goosegrass ([9]; Postemergence, 62 g ai/ha): 75
Goosegrass plant response rating ([9]; Postemergence, 125 g ai/ha): 75
Plant response rating, Goosegrass [9, 14]: 80

CCCCOC(=O)c1nc(C2CC2)nc(N)c1Cl [Compound 76]
Plant response rating, Morningglory [1, 10]: 90
Plant response rating, Morningglory [1, 11]: 95
Plant response rating, Morningglory [1, 12]: 100
Plant response rating, Morningglory [1, 13]: 100
Plant response rating, Crabgrass [2, 10]: 45
Plant response rating, Crabgrass [2, 11]: 70
Plant response rating, Crabgrass [2, 12]: 30
Plant response rating, Crabgrass [2, 13]: 75
Plant response rating, Pigweed [3, 10]: 85
Plant response rating, Pigweed [3, 11]: 95
Plant response rating, Pigweed [3, 12]: 80
Plant response rating, Pigweed [3, 13]: 90
Plant response rating, Velvetleaf [4, 10]: 80
Plant response rating, Velvetleaf [4, 11]: 100
Plant response rating, Velvetleaf [4, 12]: 90
Plant response rating, Velvetleaf [4, 13]: 100
Plant response rating, Barnyardgrass [5, 10]: 90
Plant response rating, Barnyardgrass [5, 11]: 90
Plant response rating, Barnyardgrass [5, 12]: 75
Plant response rating, Barnyardgrass [5, 13]: 90
Plant response rating, Foxtail, Giant [6, 10]: 90
Plant response rating, Foxtail, Giant [6, 11]: 90
Plant response rating, Foxtail, Giant [6, 12]: 70
Plant response rating, Foxtail, Giant [6, 13]: 85
Plant response rating (scale of 0 to 100), Chickweed ([7]; 16 g ai/ha): 35
Plant response rating (scale of 0 to 100), Chickweed ([7]; 31 g ai/ha): 45
Plant response rating (scale of 0 to 100), Chickweed ([7]; 62 g ai/ha): 70
Chickweed plant response rating [7]: 95
Plant response rating (scale of 0 to 100), Corn (corn (Zea mays); Postemergence, 16 g ai/ha): 10
Plant response rating (scale of 0 to 100), Corn (corn (Zea mays); Postemergence, 31 g ai/ha): 35
Plant response rating (scale of 0 to 100), Corn (corn (Zea mays); Postemergence, 62 g ai/ha): 55
Corn plant response rating (corn (Zea mays); Postemergence, 125 g ai/ha): 70
Plant response rating, Corn (corn (Zea mays); [15]): 0
Plant response rating, Corn (corn (Zea mays); [16]): 0
Plant response rating, Corn (corn (Zea mays); [17]): 35
Plant response rating, Corn (corn (Zea mays); [18]): 45
Plant response rating (scale of 0 to 100), Soybean (soybean (Glycine max); Postemergence, 16 g ai/ha): 95
Plant response rating (scale of 0 to 100), Soybean (soybean (Glycine max); Postemergence, 31 g ai/ha): 95
Plant response rating (scale of 0 to 100), Soybean (soybean (Glycine max); Postemergence, 62 g ai/ha): 95
Soybean plant response rating (soybean (Glycine max); Postemergence): 100
Plant response rating, Soybean (soybean (Glycine max); [15]): 50
Plant response rating, Soybean (soybean (Glycine max); [16]): 70
Plant response rating, Soybean (soybean (Glycine max); [17]): 95
Plant response rating (scale of 0 to 100), Lambsquarters ([8]; Postemergence, 16 g ai/ha): 90
Plant response rating (scale of 0 to 100), Lambsquarters ([8]; Postemergence, 31 g ai/ha): 95
Plant response rating (scale of 0 to 100), Lambsquarters ([8]; Postemergence, 62 g ai/ha): 100
Lambsquarters plant response rating ([8]; Postemergence, 125 g ai/ha): 100
Plant response rating, Lambsquarters [8, 15]: 70
Plant response rating, Lambsquarters [8, 16]: 70
Plant response rating, Lambsquarters [8, 17]: 80
Plant response rating, Lambsquarters [8, 18]: 80
Plant response rating (scale of 0 to 100), Goosegrass ([9]; Postemergence, 16 g ai/ha): 30
Plant response rating (scale of 0 to 100), Goosegrass ([9]; Postemergence, 31 g ai/ha): 45
Plant response rating (scale of 0 to 100), Goosegrass ([9]; Postemergence, 62 g ai/ha): 45
Goosegrass plant response rating ([9]; Postemergence, 125 g ai/ha): 50
Plant response rating, Goosegrass [9, 15]: 0
Plant response rating, Goosegrass [9, 16]: 0
Plant response rating, Goosegrass [9, 17]: 0
Plant response rating, Goosegrass [9, 18]: 0

CCOC(=O)c1nc(-c2ccc(I)cc2)nc(N)c1Cl [Compound 133]
Plant response rating, Morningglory [1, 10]: 70
Plant response rating, Morningglory [1, 11]: 85
Plant response rating, Morningglory [1, 12]: 0
Plant response rating, Morningglory [1, 13]: 35
Plant response rating, Crabgrass [2, 10]: 30
Plant response rating, Crabgrass [2, 11]: 55
Plant response rating, Crabgrass [2, 12]: 0
Plant response rating, Crabgrass [2, 13]: 45
Plant response rating, Pigweed [3, 10]: 80
Plant response rating, Pigweed [3, 11]: 90
Plant response rating, Pigweed [3, 12]: 10
Plant response rating, Pigweed [3, 13]: 65
Plant response rating, Velvetleaf [4, 10]: 80
Plant response rating, Velvetleaf [4, 11]: 85
Plant response rating, Velvetleaf [4, 12]: 10
Plant response rating, Velvetleaf [4, 13]: 30
Plant response rating, Barnyardgrass [5, 10]: 10
Plant response rating, Barnyardgrass [5, 11]: 40
Plant response rating, Barnyardgrass [5, 12]: 0
Plant response rating, Barnyardgrass [5, 13]: 15
Plant response rating, Foxtail, Giant [6, 10]: 15
Plant response rating, Foxtail, Giant [6, 11]: 60
Plant response rating, Foxtail, Giant [6, 12]: 0
Plant response rating, Foxtail, Giant [6, 13]: 30
Plant response rating (scale of 0 to 100), Chickweed ([7]; 16 g ai/ha): 0
Plant response rating (scale of 0 to 100), Chickweed ([7]; 31 g ai/ha): 10
Plant response rating (scale of 0 to 100), Chickweed ([7]; 62 g ai/ha): 20
Chickweed plant response rating [7]: 45
Plant response rating (scale of 0 to 100), Corn (corn (Zea mays); Postemergence, 16 g ai/ha): 35
Plant response rating (scale of 0 to 100), Corn (corn (Zea mays); Postemergence, 31 g ai/ha): 40
Plant response rating (scale of 0 to 100), Corn (corn (Zea mays); Postemergence, 62 g ai/ha): 60
Corn plant response rating (corn (Zea mays); Postemergence, 125 g ai/ha): 80
Plant response rating (scale of 0 to 100), Soybean (soybean (Glycine max); Postemergence, 16 g ai/ha): 95
Plant response rating (scale of 0 to 100), Soybean (soybean (Glycine max); Postemergence, 31 g ai/ha): 95
Plant response rating (scale of 0 to 100), Soybean (soybean (Glycine max); Postemergence, 62 g ai/ha): 100
Soybean plant response rating (soybean (Glycine max); Postemergence): 100
Plant response rating (scale of 0 to 100), Lambsquarters ([8]; Postemergence, 16 g ai/ha): 95
Plant response rating (scale of 0 to 100), Lambsquarters ([8]; Postemergence, 31 g ai/ha): 95
Plant response rating (scale of 0 to 100), Lambsquarters ([8]; Postemergence, 62 g ai/ha): 95
Lambsquarters plant response rating ([8]; Postemergence, 125 g ai/ha): 100
Plant response rating (scale of 0 to 100), Goosegrass ([9]; Postemergence, 16 g ai/ha): 15
Plant response rating (scale of 0 to 100), Goosegrass ([9]; Postemergence, 31 g ai/ha): 55
Plant response rating (scale of 0 to 100), Goosegrass ([9]; Postemergence, 62 g ai/ha): 65
Goosegrass plant response rating ([9]; Postemergence, 125 g ai/ha): 70

From patent publication US8802597B2, “Herbicidal pyrimidines” (E I du Pont de Nemours and Company, priority 2003, dated 2014)
